This is an account of results in PubChem BioAssay (NCI).

The structures appear in SMILES notation.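 Growth conditions: 96-well plates. Treatment: test compound, 48 hours, 5 concentrations. Analysis: linear interpolation between bracketing concentrations; unreached endpoints set to highest concentration. The concentration for full growth arrest is given as TGI.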

Common to all, as to test: DTP human tumour cell line panel, 48 h
Test [1] relates to RXF-631 renal.
Test [2] concerns DMS 273 small cell lung.
Test [3] has as its system LXFL 529 NSCLC.
Test [4] relates to SNB-78 CNS.
The test system of test [5] is HOP-18 NSCLC.
Test [6] concerns XF 498 CNS.
The test system of test [7] is M19-MEL melanoma.
The test system of test [8] is BT-549 breast.

With `Cc1cn([C@@H]2C[C@H](CO)[C@@H](O)C2)c(=O)[nH]c1=O`, the TGI in test [1], in test [2], in test [3], in test [4], in test [5] and in test [6] was > 100 µM each time. Besides, the TGI in test [7] is > 100 µM.

In the case of `C=CCNC(=S)N=Nc1c(O)[nH]c2ccc([N+](=O)[O-])cc12`, the TGI in test [8] is > 100 µM.

Turning to `N#CC1=C(c2ccccc2)NNC(c2ccc(Cl)cc2)CC1=O` (stereo not drawn), the total growth inhibition concentration (TGI) in test [3] is > 100 µM; in test [4], > 100 µM; in test [5], > 100 µM; in test [6], 77.1 µM.

Consider `Cc1ccc([N+](=O)[O-])cc1N=NC(=O)NNc1cc([N+](=O)[O-])ccc1C`, for which, in test [8], the TGI is 52.1 µM.

As a reminder, the TGI is the concentration giving total growth inhibition.
